Measurements taken from patent US5567692A, “9-[(substituted glycyl) amido)]-6-demethyl-6-deoxytetracyclines” (priority 1995, dated 1996).
Values after ≈ are worked out from the molar mass of the structure shown. Structures can show the parent of a compound that is named as a salt. Where two headings read alike, the source gives them in different places.

Key:
[1] = system: S. aureus UBMS 88-7 Tet K; assay: microbe, parasite or virus in culture; type: cell-based
[2] = system: E. coli MC 4100 TNIOC Tet B; assay: microbe, parasite or virus in culture; type: cell-based
S. aureus UBMS 90-3 = assay: MIC, agar dilution; type: cell-based; details: S. aureus UBMS 90-3
S. aureus IVES 1983 = assay: MIC, agar dilution; type: cell-based
E. coli J2175 = assay: MIC, agar dilution; type: cell-based
[3] = system: Staphylococcus aureus strain Smith (tetracycline sensitive); assay: Acute lethal infection in mice, S. aureus Smith; type: in vivo; details: for ED50: mice, S. aureus Smith (Sens), 7 day survival; for in vivo activity (in words): tested intravenously against the minocycline sensitive organism S. aureus Smith
S. aureus SMITH (MP) = assay: MIC, agar dilution; type: cell-based
S. aureus UBMS 88-4 = assay: MIC, agar dilution; type: cell-based
E. coli BAJ9003 IMP MUT = assay: microbe, parasite or virus in culture; type: cell-based; details: E. coli BAJ9003 IMP MUT
S. aureus NEMC 8769 = assay: MIC, agar dilution; type: cell-based
E. coli UBMS 88-1 Tet B = assay: microbe, parasite or virus in culture; type: cell-based
E. faecalis ATCC 29212 = assay: MIC, agar dilution; type: cell-based; details: E. faecalis ATCC 29212
[4] = system: Ps. aeruginosa ATCC 27853; assay: MIC, agar dilution; type: cell-based; details: Ps. aeruginosa ATCC 27853
E. coli J3272 Tet C = assay: microbe, parasite or virus in culture; type: cell-based
[5] = system: E. coli UBMS 89-2 Tet sens.; assay: MIC, agar dilution; type: cell-based
Enterococcus 12201 = assay: MIC, agar dilution; type: cell-based
[6] = system: X. maltophilia NEMC 87210; assay: MIC, agar dilution; type: cell-based
S. aureus IVES 2943 = assay: MIC, agar dilution; type: cell-based
S. aureus ROSE (MP) = assay: MIC, agar dilution; type: cell-based
S. marcescens FPOR 8733 = assay: MIC, agar dilution; type: cell-based
S. aureus ATCC 29213 = assay: MIC, agar dilution; type: cell-based; details: Staphylococcus aureus, ATCC29213, 18 h, S. aureus ATCC 29213; read-out: MIC
E. coli PRP1 Tet A = assay: microbe, parasite or virus in culture; type: cell-based
E. coli UBMS 90-5 = assay: microbe, parasite or virus in culture; type: cell-based; details: E. coli UBMS 90-5
[7] = system: S. hemolyticus AVHAH 88-3; assay: MIC, agar dilution; type: cell-based
E. coli #311 (MP) = assay: MIC, agar dilution; type: cell-based; details: Escherichia coli, 18 h
E. coli J3272 Tet D = assay: microbe, parasite or virus in culture; type: cell-based; details: monohydrochloride
E. coli ATCC 25922 = assay: MIC, agar dilution; type: cell-based
E. coli UBMS 89-1 Tet M = assay: microbe, parasite or virus in culture; type: cell-based
E. coli UBMS 90-4 Tet M = assay: microbe, parasite or virus in culture; type: cell-based; details: Escherichia coli, UBMS904TETM, 18 h
[8] = system: S. aureus UBMS 90-2 Tet M; assay: microbe, parasite or virus in culture; type: cell-based; details: Staphylococcus aureus, UBMS902TETM, 18 h
[9] = system: S. aureus UBMS 90-1 Tet M; assay: microbe, parasite or virus in culture; type: cell-based; details: Staphylococcus aureus, UBMS901TETM, 18 h
[10] = system: S. aureus UBMS 88-5 Tet M; assay: microbe, parasite or virus in culture; type: cell-based; details: Staphylococcus aureus, UBMS885TETM, 18 h
[11] = Staphylococcus aureus, NEMC8769, 18 h, read-out: MIC
[12] = Staphylococcus aureus, UBMS887TETK, 18 h
[13] = Escherichia coli, UBMS905, 18 h, read-out: MIC
[14] = Staphylococcus aureus, IVES1983, 18 h
[15] = Escherichia coli, 18 h, read-out: MIC
[16] = Escherichia coli, UBMS881TETB, 18 h
[17] = Pseudomonas aeruginosa, ATCC27853, 18 h, read-out: MIC
[18] = Escherichia coli, J3272TETC, 18 h
[19] = Staphylococcus aureus, 18 h, read-out: MIC
[20] = Serratia marcescens, FPOR8733, 18 h, read-out: MIC
[21] = Escherichia coli, PRP1TETA, 18 h

CN(C)CC(=O)Nc1ccc2c(c1O)C(=O)C1=C(O)[C@]3(O)C(=O)C(C(N)=O)=C(O)[C@@H](N(C)C)C3CC1C2 (stereo partly drawn) [BB, [4S-(4alpha,12aalpha)]-4-(Dimethylamino)-9-[[(dimethylamino)acetyl]amino]-1,4,4a,5,5a,6,11,12a-octahydro-3,10,12,12a-tetrahydroxy-1,11-dioxo-2-naphthacenecarboxamide]
MIC [1]: 0.5 µg/mL (≈ 0.972 µM)
MIC ([2]; E. coli MC 4100 TNIOC Tet B): 0.25 µg/mL (≈ 0.486 µM)
MIC (S. aureus UBMS 90-3): 0.06 µg/mL (≈ 0.117 µM)
MIC (S. aureus IVES 1983; Staphylococcus aureus, IVES1983, 18 h, S. aureus IVES 1983, read-out: MIC): 0.5 µg/mL (≈ 0.972 µM)
MIC (E. coli J2175): 0.25 µg/mL (≈ 0.486 µM)
ED50 ([3]; Intraveneous, 10080 min): 0.5 to 1 mg/kg
ED50 ([3]; Oral, 10080 min): 8 to 16 mg/kg
in vivo activity (in words) [3]: very good in vivo activity
MIC (S. aureus SMITH (MP); S. aureus SMITH (MP)): 0.06 µg/mL (≈ 0.117 µM)
MIC (S. aureus UBMS 88-4; S. aureus UBMS 88-4): 0.06 µg/mL (≈ 0.117 µM)
MIC (E. coli BAJ9003 IMP MUT): no growth
MIC (S. aureus NEMC 8769; [11]): < 0.015 µg/mL
MIC (E. coli UBMS 88-1 Tet B; E. coli UBMS 88-1 Tet B): 0.25 µg/mL (≈ 0.486 µM)
MIC (E. faecalis ATCC 29212): 0.06 µg/mL (≈ 0.117 µM)
MIC [4]: 8 µg/mL (≈ 15.5 µM)
MIC (E. coli J3272 Tet C): 0.25 µg/mL (≈ 0.486 µM)
MIC ([5]; E. coli UBMS 89-2 Tet sens.): 0.25 µg/mL (≈ 0.486 µM)
MIC (Enterococcus 12201; Enterococcus 12201): 0.06 µg/mL (≈ 0.117 µM)
MIC ([6]; X. maltophilia NEMC 87210): 1 µg/mL (≈ 1.94 µM)
MIC (S. aureus IVES 2943; S. aureus IVES 2943): 0.5 µg/mL (≈ 0.972 µM)
MIC (S. aureus ROSE (MP); Staphylococcus aureus, 18 h): 2 µg/mL (≈ 3.89 µM)
MIC (S. marcescens FPOR 8733; Serratia marcescens, FPOR8733, 18 h): 2 µg/mL (≈ 3.89 µM)
MIC (S. aureus ATCC 29213): 0.3 µg/mL (≈ 0.583 µM)
MIC (E. coli PRP1 Tet A): 0.5 µg/mL (≈ 0.972 µM)

CN(C)CC(=O)Nc1ccc2c(c1O)C(=O)C1=C(O)[C@]3(O)C(=O)C(C(N)=O)=C(O)[C@@H](N(C)C)C3CC1C2 (stereo partly drawn) [DD, [4S-(4alpha,12aalpha)]-4-(Dimethylamino)-9-[[(dimethylamino)acetyl]amino]-1,4,4a,5,5a,6,11,12a-octahydro-3,10,12,12a-tetrahydroxy-1,11-dioxo-2-naphthacenecarboxamide monohydrochloride]
MIC ([1]; monohydrochloride): 1 µg/mL
MIC (E. coli UBMS 90-5): 0.25 µg/mL
MIC (S. aureus UBMS 90-3; monohydrochloride): 0.06 µg/mL
MIC (S. aureus IVES 1983; S. aureus IVES 1983, monohydrochloride): 1 µg/mL
MIC ([7]; S. hemolyticus AVHAH 88-3, monohydrochloride): 0.25 µg/mL
ED50 ([3]; Intraveneous, monohydrochloride, 10080 min): 0.67 mg/kg
ED50 ([3]; Oral, monohydrochloride, 10080 min): 12 mg/kg
in vivo activity (in words) [3]: very good in vivo activity
MIC (E. coli #311 (MP)): 0.25 µg/mL
MIC (S. aureus NEMC 8769; monohydrochloride): 0.03 µg/mL
MIC (E. faecalis ATCC 29212; monohydrochloride): 0.06 µg/mL
MIC ([4]; monohydrochloride): 8 µg/mL
MIC (E. coli J3272 Tet D): 0.25 µg/mL
MIC (E. coli J3272 Tet C; monohydrochloride): 1 µg/mL
MIC (E. coli ATCC 25922; monohydrochloride): 0.25 µg/mL
MIC ([6]; X. maltophilia NEMC 87210, monohydrochloride): 2 µg/mL
MIC (E. coli UBMS 89-1 Tet M; monohydrochloride): 0.5 µg/mL
MIC (S. aureus IVES 2943; S. aureus IVES 2943, monohydrochloride): 1 µg/mL
MIC (S. aureus ROSE (MP); monohydrochloride): 4 µg/mL
MIC (S. marcescens FPOR 8733): 4 µg/mL
MIC (E. coli PRP1 Tet A; monohydrochloride): 1 µg/mL

CC(C)CNCC(=O)Nc1ccc2c(c1O)C(=O)C1=C(O)[C@]3(O)C(=O)C(C(N)=O)=C(O)[C@@H](N(C)C)C3CC1C2 (stereo partly drawn) [M, [4S-(4alpha,12aalpha)]-4-(Dimethylamino)-1,4,4a,5,5a,6,11,12a-octahydro-3,10,12,12a-tetrahydroxy-9-[[[(2-methylpropyl)amino]acetyl]amino]-1,11-dioxo-2-naphthacenecarboxamide dihydrochloride]
MIC [1, 12]: 2 µg/mL
MIC ([2]; Escherichia coli, 18 h): 1 µg/mL
MIC (E. coli UBMS 90-5; [13]): 1 µg/mL
MIC (S. aureus IVES 1983; [14]): 2 µg/mL
MIC ([7]; Streptococcus pyogenes, AVHAH883, 18 h, S. hemolyticus AVHAH 88-3, read-out: MIC): 2 µg/mL
MIC (E. coli J2175; [15]): 1 µg/mL
MIC (E. coli UBMS 90-4 Tet M): 0.5 µg/mL
MIC (S. aureus SMITH (MP); Staphylococcus aureus, 18 h): 0.5 µg/mL
MIC (E. coli #311 (MP)): 1 µg/mL
MIC (S. aureus UBMS 88-4; Staphylococcus aureus, UBMS884, 18 h): 0.5 µg/mL
MIC (S. aureus NEMC 8769; [11]): 8 µg/mL
MIC [8]: 0.5 µg/mL
MIC (E. coli UBMS 88-1 Tet B; [16]): 1 µg/mL
MIC [4, 17]: 32 µg/mL
MIC [9]: 0.5 µg/mL
MIC (E. coli J3272 Tet C; [18]): 1 µg/mL
MIC (E. coli ATCC 25922; Escherichia coli, ATCC25922, 18 h): 0.5 µg/mL
MIC ([5]; Escherichia coli, 18 h): 1 µg/mL
MIC (Enterococcus 12201; Enterococcus, 12201, 18 h): 0.5 µg/mL
MIC ([6]; Stenotrophomonas maltophilia, NEMC87210, 18 h, X. maltophilia NEMC 87210, read-out: MIC): 2 µg/mL
MIC (E. coli UBMS 89-1 Tet M; Escherichia coli, UBMS891TETM, 18 h): 0.5 µg/mL
MIC (S. aureus IVES 2943; Staphylococcus aureus, IVES2943, 18 h, S. aureus IVES 2943, read-out: MIC): 4 µg/mL
MIC (S. aureus ROSE (MP); [19]): 8 µg/mL
MIC (S. marcescens FPOR 8733; [20]): 8 µg/mL
MIC (E. coli PRP1 Tet A; [21]): 1 µg/mL
MIC [10]: 0.5 µg/mL

CN(C)[C@@H]1C(O)=C(C(N)=O)C(=O)[C@@]2(O)C(O)=C3C(=O)c4c(ccc(NC(=O)CN5CCCC5)c4O)CC3CC12 (stereo partly drawn) [D, [7S-(7alpha,10aalpha)]-N-[9-(Aminocarbonyl)-7-(dimethylamino)-5,5a,6,6a,7-10,10a,12-octahydro-1,8,10a,11-tetrahydroxy-10,12-dioxo-2-naphthacenyl]-1-pyrrolidineacetamide dihydrochloride]
MIC [1, 12]: 0.5 µg/mL
MIC ([2]; Escherichia coli, 18 h): 0.25 µg/mL
MIC (E. coli UBMS 90-5; [13]): 0.25 µg/mL
MIC (S. aureus IVES 1983; [14]): 1 µg/mL
MIC ([7]; Streptococcus pyogenes, AVHAH883, 18 h): 0.25 µg/mL
MIC (E. coli J2175; [15]): 0.25 µg/mL
ED50 ([3]; Staphylococcus aureus, iv, 168 h, Intraveneous, read-out: ED50): 1 to 2 mg/kg
ED50 ([3]; Staphylococcus aureus, po, 168 h, Oral, read-out: ED50): > 16 mg/kg
in vivo activity (in words) [3]: very good in vivo activity
MIC (E. coli UBMS 90-4 Tet M): 0.25 µg/mL
MIC (E. coli #311 (MP)): 0.25 µg/mL
MIC (S. aureus NEMC 8769; Staphylococcus aureus, NEMC8769, 18 h): 0.06 µg/mL
MIC [8]: 0.25 µg/mL
MIC (E. coli UBMS 88-1 Tet B; [16]): 0.25 µg/mL
MIC [4, 17]: 16 µg/mL
MIC [9]: 0.25 µg/mL
MIC (E. coli J3272 Tet C; [18]): 0.25 µg/mL
MIC ([5]; Escherichia coli, 18 h): 0.25 µg/mL
MIC ([6]; Stenotrophomonas maltophilia, NEMC87210, 18 h): 1 µg/mL
MIC (S. aureus IVES 2943; Staphylococcus aureus, IVES2943, 18 h): 1 µg/mL
MIC (S. aureus ROSE (MP); [19]): 2 µg/mL
MIC (S. marcescens FPOR 8733; [20]): 2 µg/mL
MIC (E. coli PRP1 Tet A; [21]): 0.25 µg/mL
